US11066378B2, “Caffeic acid derivatives for anti-angiogenesis” (Taipei Medical University, priority 2015, dated 2021)

Legend:
[1] = system: MEK1/2-ERK1/2 and AKT-mTOR signaling pathway; assay: VEGFR-2 downstream signaling cascades in HUVECs (immunoblot); assay type: cell-based, human; details: activation level rather than total protein level
Description: (§1) The experiments were carried out as described previously (Pan et al., 2010). Briefly, the cells (5×10^5 cells/well) seeded on the 6-well plates and incubated with different concentrations (0.5, 1, and 2 μM) of K20E under normal culture condition for 15 min or 24 h to detect the expression levels of the phosphorylated proteins and the total proteins, respectively. The treated cells were harvested and lysed by using PROPREP® protein extraction solution (#17081; iNtRON Biotechnology, Gyeonggi-Do, South Korea). The cell lysates were further centrifuged at 13000×g at 4° C. for 10 min to collect the supernatants for sodium dodecyl sulfate-polyacrylamide gel electrophoresis (SDS-PAGE). Protein concentration was measured by the Bio-Rad protein assay kit (Bio-Rad, Hercules, Calif., USA) according to the manufacturer's instructions. Aliquots containing 30 μg protein were electrophoresed using 10% slab SDS-PAGE gels and then transferred to PVDF membranes (Immobilon-P™; Millipore, Bedford, Mass., USA). […] The luminescence signal was acquired by Fujifilm LAS-4000 system (San Leandro, Calif., USA) and quantified by using MultiGauge software (v3.0; Fujifilm). […] The relative protein expression was calculated according to the values of the control group (treated with 5% or 10% FBS alone) as 100%.

HUVECs [2] = assay: Tube formation analysis; assay type: cell-based, human; details: 8 h, 5% FBS, 0.5, 1 and 2 μM, dose-dependent, FIG. 4
Description: The experiments were performed as described previously (Pan et al., 2010). The HUVECs (lx 10^4 cells/well) were seeded on Matrigel-coated wells of a 96-well plate and then incubated with various concentrations (0.5, 1, and 2 μM) of K20E for 8 h. After that, the capillary-like tube formation was observed by light microscopy at 40-fold magnification, and the tube lengths of the capillary mesh were measured to evaluate anti-angiogenic effect of K20E. The tube length of the control group (treated with 5% FBS alone) was defined as 100%.

[3] = system: VEGF-induced vessel formation within the Matrigel plug; assay: Matrigel plug assay (VEGF-induced neovascularization); assay type: in vivo, mouse; details: mice, dose-dependent
Description: Male C57BL/6 (average of 6-week-old) mice were divided randomly into four groups (n=3/group): Group 1 (control group; injection with 500 μL cold-Matrigel [#356237; BD Biosciences]), Group 2 (injection with 500 μL cold-Matrigel containing 100 ng/mL VEGF and 100 U/mL heparin), Group 3 (injection with 4 μM […] dissolved in 500 μL cold-Matrigel containing 100 ng/mL VEGF and 100 U/mL heparin), and Group 4 (injection with 8 μM […] dissolved in 500 μL cold-Matrigel containing 100 ng/mL VEGF and 100 U/mL heparin). After 1 week adaptation, the mice were anesthetized and injected subcutaneously with pre-prepared cold-Matrigel gel mentioned above into the left groin region to form jelly-like plug under normal body temperature. The vascular endothelial cells will be attracted by Matrigel plug-released VEGF to form the new vessel within the Matrigel plug, whose process will be suppressed by anti-angiogenic substances added in the Matrigel plugs. After 7 days, the mice were sacrificed and the Matrigel plug was recovered and photographed. The harvested Matrigel plugs were further homogenized in 1× phosphate buffered saline (PBS) and then centrifuged at 10000×g for 10 min at 4° C. The Drabkin's Reagent (#D5941; Sigma-Aldrich, Louis, Mo., USA) was applied for examining the hemoglobin content in the supernatants of the homogenized Matrigel plugs according to the manufacturer's instructions. […]

VEGF = VEGF level in LLC1 cells (immunoblot) and culture medium (ELISA); assay type: cell-based, mouse; details: 24 h, FIG. 5
Description: as §1, with “100%. […]” for “100%.”

HUVECs [4] = assay: Cell cycle analysis by flow cytometry; assay type: cell-based, human; details: 24 h, FIG. 2E
Description: The experiments were performed according to our previous report with minor modifications (Pan et al., 2010). Briefly, the HUVECs (5×10^5 cells/well) were seeded on 6-well plated and harvested after 24 h treatment of K20E (0.5, 1, and 2 μM). Harvested cells were fixed with 70% ice-cold ethanol overnight. Cell pellets were centrifuged (1500 rpm, 5 min, 4° C.) and then re-suspended in 500 μL of DNA staining buffer containing 4 μg/mL propidium iodide, 1% Triton X-100, and 0.5 mg/mL of RNase A. After incubation at 37° C. (water bath) for 30 min in the dark, the cell cycle phase distributions were detected and analyzed by using FACSCanto flow cytometer (BD Biosciences, San Jose, Calif., USA) and ModFit LT Program (Verify Software House, Topsham, Me., USA), respectively.

COC(=O)/C=C/c1cc(OC(C)=O)c2c(c1)[C@H](C(=O)OC)[C@@H](c1ccc(OC(C)=O)c(OC(C)=O)c1)O2 [K20E]
MEK1/2-ERK1/2 signaling ([1]; FIG. 6B): suppressed
AKT-mTOR signaling pathway ([1]; FIG. 6C): suppressed
tube formation of the HUVECs on Matrigel (HUVECs [2]): significantly suppressed
neovessel formation within the Matrigel plug with VEGF ([3]; 4 and 8 μM, not at lower dose (1 and 2 μM), FIG. 1B upper panel): significantly decreased
hemoglobin content of the implanted Matrigel plugs with VEGF ([3]; compared to Matrigel with VEGF alone, FIG. 1B lower panel): obviously diminished
intracellular level of VEGF protein (VEGF; LLC1 cancer cells, immunoblot): dose-dependently decrease
secreted level of VEGF protein (VEGF; LLC1 culture medium, ELISA): dose-dependently decrease
cells in sub-G1 phases (apoptosis) (HUVECs [4]; 0.5 μM): significantly induce cells in sub-G1 phases (apoptosis)
cell cycle arrest in G2/M phase (HUVECs [4]; 1 μM): arrest cells in G2/M phase
